Patent US20060069132A1, “Azolecarboxamide herbicides” (priority 2004, published 2006)

Legend:
barnyardgrass [1] = test: Test A pre-/postemergence herbicide test; type: in vivo, Echinochloa crus-galli
How it was run: (§1)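 Both application timings were run together: directed soil spray over freshly planted seeds in sandy loam, and runoff spray onto 2–10 cm seedlings. Evaluation after ~10 days in greenhouse used a 0–100 visual scale versus untreated controls.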

large crabgrass [2] = test: Test A pre-/postemergence herbicide test; type: in vivo, Digitaria sanguinalis
How it was run: as §1

giant foxtail [3] = test: Test A pre-/postemergence herbicide test; type: in vivo, Setaria faberi
How it was run: as §1

morningglory [4] = test: Test A pre-/postemergence herbicide test; type: in vivo, Ipomoea spp.
How it was run: as §1

redroot pigweed = test: Test A pre-/postemergence herbicide test; type: in vivo, Amaranthus retroflexus
How it was run: as §1

velvetleaf [5] = test: Test A pre-/postemergence herbicide test; type: in vivo, Abutilon theophrasti
How it was run: as §1

barnyardgrass [6] = test: Test B pre-/postemergence herbicide test; type: in vivo, Echinochloa crus-galli; details: for Plant response rating, Barnyardgrass: preemergence; for Barnyardgrass plant response rating: postemergence, visual rating, scale 0 (no effect) to 100 (complete control)
How it was run: (§2)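 Plants compared with untreated controls 13–15 days post-treatment and given a visual 0–100 injury score. Applications: preemergence to seeds; postemergence at 1- to 4-leaf (2–18 cm); paddy species flooded, 2-leaf stage. Vehicle non-phytotoxic, surfactant included.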

Surinam grass = test: Test B pre-/postemergence herbicide test; type: in vivo, Urochloa decumbens; details: for Plant response rating, Surinam Grass: preemergence; for Surinam Grass plant response rating: postemergence, visual rating, scale 0 (no effect) to 100 (complete control)
How it was run: (§3)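 Greenhouse pot assay with simultaneous preemergence (treated seed) and postemergence (2–18 cm seedlings) applications of surfactant-containing, non-phytotoxic solvent formulations. Response scored visually 13–15 days later on a 0–100 scale, 100 meaning complete control.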

cocklebur = test: Test B pre-/postemergence herbicide test; type: in vivo, Xanthium strumarium; details: for Plant response rating, Cocklebur: preemergence; for Cocklebur plant response rating: postemergence, visual rating, scale 0 (no effect) to 100 (complete control)
How it was run: as §2

corn = test: Test B pre-/postemergence herbicide test; type: in vivo, Zea mays; details: for Plant response rating, Corn: preemergence; for Corn plant response rating: postemergence, visual rating, scale 0 (no effect) to 100 (complete control)
How it was run: as §3

large crabgrass [7] = test: Test B pre-/postemergence herbicide test; type: in vivo, Digitaria sanguinalis; details: for Plant response rating, Crabgrass, Large: preemergence; for Crabgrass, Large plant response rating: postemergence, visual rating, scale 0 (no effect) to 100 (complete control)
How it was run: as §3

giant foxtail [8] = test: Test B pre-/postemergence herbicide test; type: in vivo, Setaria faberi; details: for Plant response rating, Foxtail, Giant: preemergence; for Foxtail, Giant plant response rating: postemergence, visual rating, scale 0 (no effect) to 100 (complete control)
How it was run: as §3

lambsquarters = test: Test B pre-/postemergence herbicide test; type: in vivo, Chenopodium album; details: for Plant response rating, Lambsquarters: preemergence; for Lambsquarters plant response rating: postemergence, visual rating, scale 0 (no effect) to 100 (complete control)
How it was run: as §3

morningglory [9] = test: Test B pre-/postemergence herbicide test; type: in vivo, Ipomoea coccinea; details: for Plant response rating, Morningglory: preemergence; for Morningglory plant response rating: postemergence, visual rating, scale 0 (no effect) to 100 (complete control)
How it was run: as §2

pigweed = test: Test B pre-/postemergence herbicide test; type: in vivo, Amaranthus retroflexus; details: for Plant response rating, Pigweed: preemergence; for Pigweed plant response rating: postemergence, visual rating, scale 0 (no effect) to 100 (complete control)
How it was run: as §3

rice [10] = test: Test B pre-/postemergence herbicide test; type: in vivo, Oryza sativa; details: preemergence, 125 g ai/ha; 0 to 100 scale, 0 is no effect, 100 is complete control
How it was run: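 Species tested were Echinochloa crus-galli, Ipomoea coccinea, Xanthium strumarium and Oryza sativa, treated both before emergence and at the 1- to 4-leaf stage; rice and barnyardgrass were also tested under flooding at 2 leaves. Greenhouse incubation lasted 13–15 days before visual 0–100 scoring.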

velvetleaf [11] = test: Test B pre-/postemergence herbicide test; type: in vivo, Abutilon theophrasti; details: for Plant response rating, Velvetleaf: preemergence; for Velvetleaf plant response rating: postemergence, visual rating, scale 0 (no effect) to 100 (complete control)
How it was run: as §3

blackgrass = test: Test B postemergence herbicide test; type: in vivo, Alopecurus myosuroides; details: postemergence, visual rating, scale 0 (no effect) to 100 (complete control)
How it was run: (§4)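 Formulated test chemicals went onto postemergence plants measuring 2 to 18 cm, at one to four leaves. For the paddy assay, species had reached two leaves. Scoring took place 13–15 days later by eye, relative to untreated plants, using 0 for no effect up to 100 for full control.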

wheat = test: Test B postemergence herbicide test; type: in vivo, Triticum aestivum; design: key to Wheat plant response rating: 0 = no effect, 100 = complete control; details: postemergence, visual rating, scale 0 (no effect) to 100 (complete control)
How it was run: (§5)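 Plants grow to 1- to 4-leaf stage (2–18 cm) for postemergence spraying, or to 2-leaf stage for the paddy test. Formulated compound is applied. Greenhouse holding lasts 13–15 days. Response is scored visually relative to controls, 0 no effect to 100 complete control; a dash means no result.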

wild oat = test: Test B postemergence herbicide test; type: in vivo, Avena fatua; details: postemergence, visual rating, scale 0 (no effect) to 100 (complete control)
How it was run: as §5

rice [12] = test: Test B flooded paddy test; type: in vivo, Oryza sativa; details: 1000 g ai/ha, visual rating, scale 0 to 100 (0 no effect, 100 complete control), 13 to 15 days
How it was run: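 Greenhouse test; postemergence application to plants at 1–4 leaves (2–18 cm); paddy species at 2 leaves; evaluated visually vs controls at 13–15 days; scale 0–100 (100 = complete control).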

[13] = tested on: small flower umbrella sedge; test: Test B flooded paddy test; type: in vivo, Cyperus difformis; details: 1000 g ai/ha, visual rating, scale 0 to 100 (0 no effect, 100 complete control), 13 to 15 days
How it was run: as §4

ducksalad = test: Test B flooded paddy test; type: in vivo, Heteranthera limosa; details: 1000 g ai/ha, visual rating, scale 0 to 100 (0 no effect, 100 complete control), 13 to 15 days
How it was run: as §4

barnyardgrass [14] = test: Test B flooded paddy test; type: in vivo, Echinochloa crus-galli; details: 1000 g ai/ha, visual rating, scale 0 to 100 (0 no effect, 100 complete control), 13 to 15 days
How it was run: as §4

[15] = Postemergence, 500 g ai/ha, 0 to 100 scale, 0 no effect, 100 complete control
[16] = Postemergence, 2000 g ai/ha, 0 to 100 scale, 0 no effect, 100 complete control
[17] = Preemergence, 500 g ai/ha, visual rating, 0 to 100 scale (0 no effect, 100 complete control)
[18] = Preemergence, 2000 g ai/ha, visual rating, 0 to 100 scale (0 no effect, 100 complete control)
[19] = preemergence, 500 g ai/ha, visual injury, 0 to 100 scale (0 no effect, 100 complete control)
[20] = 500 g ai/ha, visual rating 0-100, 0 no effect, 100 complete control
[21] = 125 g ai/ha, 0 to 100 scale, 0 is no effect, 100 is complete control

Structure (SMILES): CC(C)NS(=O)(=O)c1cccc(NC(=O)c2cc(C(C)(C)C)nn2C)c1 [Compound 124]
- Barnyardgrass plant response rating (barnyardgrass [1]; [15]): 0
- Plant response rating, Barnyardgrass (barnyardgrass [1]; [16]): 0
- Barnyardgrass plant response rating (barnyardgrass [1]; [17]): 0
- Barnyardgrass plant response rating (barnyardgrass [1]; [18]): 10
- Crabgrass, Large plant response rating (large crabgrass [2]; [15]): 10
- Plant response rating, Crabgrass, Large (large crabgrass [2]; [16]): 10
- Crabgrass, Large plant response rating (large crabgrass [2]; [17]): 30
- Crabgrass, Large plant response rating (large crabgrass [2]; [18]): 15
- Foxtail, Giant plant response rating (giant foxtail [3]; [15]): 0
- Plant response rating, Foxtail, Giant (giant foxtail [3]; [16]): 0
- Foxtail, Giant plant response rating (giant foxtail [3]; [17]): 0
- Foxtail, Giant plant response rating (giant foxtail [3]; [18]): 0
- Morningglory plant response rating (morningglory [4]; [15]): 5
- Plant response rating, Morningglory (morningglory [4]; [16]): 0
- Morningglory plant response rating (morningglory [4]; [17]): 5
- Morningglory plant response rating (morningglory [4]; [18]): 15
- Pigweed plant response rating (redroot pigweed; [15]): 30
- Plant response rating, Pigweed (redroot pigweed; [16]): 40
- Pigweed plant response rating (redroot pigweed; [18]): 75
- Pigweed plant response rating (redroot pigweed; [19]): 20
- Velvetleaf plant response rating (velvetleaf [5]; [15]): 10
- Plant response rating, Velvetleaf (velvetleaf [5]; [16]): 10
- Velvetleaf plant response rating (velvetleaf [5]; [18]): 15
- Velvetleaf plant response rating (velvetleaf [5]; [19]): 0
- Plant response rating, Barnyardgrass (barnyardgrass [6]; [20]): 10
- Barnyardgrass plant response rating (barnyardgrass [6]; 125 g ai/ha): 0
- Barnyardgrass plant response rating (barnyardgrass [6]; 500 g ai/ha): 0
- Plant response rating, Barnyardgrass (barnyardgrass [6]; [21]): 0
- Plant response rating, Surinam Grass (Surinam grass; [20]): 10
- Surinam Grass plant response rating (Surinam grass; 125 g ai/ha): 10
- Surinam Grass plant response rating (Surinam grass; 500 g ai/ha): 20
- Plant response rating, Surinam Grass (Surinam grass; [21]): 0
- Plant response rating, Cocklebur (cocklebur; [20]): 0
- Cocklebur plant response rating (cocklebur; 125 g ai/ha): 0
- Cocklebur plant response rating (cocklebur; 500 g ai/ha): 10
- Plant response rating, Cocklebur (cocklebur; [21]): 0
- Plant response rating, Corn (corn; [20]): 0
- Corn plant response rating (corn; 125 g ai/ha): 0
- Corn plant response rating (corn; 500 g ai/ha): 10
- Plant response rating, Corn (corn; [21]): 0
- Plant response rating, Crabgrass, Large (large crabgrass [7]; [20]): 0
- Crabgrass, Large plant response rating (large crabgrass [7]; 125 g ai/ha): 10
- Crabgrass, Large plant response rating (large crabgrass [7]; 500 g ai/ha): 10
- Plant response rating, Crabgrass, Large (large crabgrass [7]; [21]): 0
- Plant response rating, Foxtail, Giant (giant foxtail [8]; [20]): 10
- Foxtail, Giant plant response rating (giant foxtail [8]; 125 g ai/ha): 0
- Foxtail, Giant plant response rating (giant foxtail [8]; 500 g ai/ha): 10
- Plant response rating, Foxtail, Giant (giant foxtail [8]; [21]): 0
- Plant response rating, Lambsquarters (lambsquarters; [20]): 80
- Lambsquarters plant response rating (lambsquarters; 125 g ai/ha): 30
- Lambsquarters plant response rating (lambsquarters; 500 g ai/ha): 70
- Plant response rating, Lambsquarters (lambsquarters; [21]): 0
- Plant response rating, Morningglory (morningglory [9]; [20]): 0
- Morningglory plant response rating (morningglory [9]; 125 g ai/ha): 0
- Morningglory plant response rating (morningglory [9]; 500 g ai/ha): 10
- Plant response rating, Morningglory (morningglory [9]; [21]): 0
- Plant response rating, Pigweed (pigweed; [20]): 90
- Pigweed plant response rating (pigweed; 125 g ai/ha): 20
- Pigweed plant response rating (pigweed; 500 g ai/ha): 70
- Plant response rating, Pigweed (pigweed; [21]): 30
- Plant response rating, Rice (rice [10]): 0
- Plant response rating, Velvetleaf (velvetleaf [11]; [20]): 0
- Velvetleaf plant response rating (velvetleaf [11]; 125 g ai/ha): 0
- Velvetleaf plant response rating (velvetleaf [11]; 500 g ai/ha): 10
- Plant response rating, Velvetleaf (velvetleaf [11]; [21]): 0
- Blackgrass plant response rating (blackgrass; 125 g ai/ha): 0
- Blackgrass plant response rating (blackgrass; 500 g ai/ha): 0
- Wheat plant response rating (wheat; 125 g ai/ha): 0
- Wheat plant response rating (wheat; 500 g ai/ha): 0
- Oat, Wild plant response rating (wild oat; 125 g ai/ha): 0
- Oat, Wild plant response rating (wild oat; 500 g ai/ha): 10
- Rice plant response rating (rice [12]): 0
- Sedge, Umbrella plant response rating [13]: 0
- Ducksalad plant response rating (ducksalad): 70
- Barnyardgrass plant response rating (barnyardgrass [14]): 0
